{"source": "ChEMBL document CHEMBL4715821", "about": "“Discovery of 4-ethoxy-7H-pyrrolo[2,3-d]pyrimidin-2-amines as potent, selective and orally bioavailable LRRK2 inhibitors” (Bioorg Med Chem Lett, 2018)", "key": {"[1]": {"target": "Serine/threonine-protein kinase ULK2 (Homo sapiens) (UniProt Q8IYT8)", "assay": "Inhibition of wild-type human partial length ULK2 (M1 to S301 residues) expressed in mammalian expression system assessed as residual activity at 1 uM by Kinomescan method relative to control"}, "[2]": {"target": "Activin receptor type-1B (Homo sapiens) (UniProt P36896)", "assay": "Inhibition of wild-type human ACVR1B (S187 to I505 residues) expressed in bacterial expression system assessed as residual activity at 1 uM by Kinomescan method relative to control"}, "[3]": {"assay": "In vivo inhibition of LRRK2 in Han-Wistar rat assessed as reduction in Ser935 phosphorylation in spleen at 10 to 100 mg/kg, po by Western blot analysis", "assay_type": "functional", "parameters": "scale not given: the % may be the effect or the level left", "conditions": "dose 10-100 mg/kg"}, "[4]": {"target": "Serine/threonine-protein kinase N2 (Homo sapiens) (UniProt Q16513)", "sequence (Q16513 whole entry, looked up, the tested form may be a part)": "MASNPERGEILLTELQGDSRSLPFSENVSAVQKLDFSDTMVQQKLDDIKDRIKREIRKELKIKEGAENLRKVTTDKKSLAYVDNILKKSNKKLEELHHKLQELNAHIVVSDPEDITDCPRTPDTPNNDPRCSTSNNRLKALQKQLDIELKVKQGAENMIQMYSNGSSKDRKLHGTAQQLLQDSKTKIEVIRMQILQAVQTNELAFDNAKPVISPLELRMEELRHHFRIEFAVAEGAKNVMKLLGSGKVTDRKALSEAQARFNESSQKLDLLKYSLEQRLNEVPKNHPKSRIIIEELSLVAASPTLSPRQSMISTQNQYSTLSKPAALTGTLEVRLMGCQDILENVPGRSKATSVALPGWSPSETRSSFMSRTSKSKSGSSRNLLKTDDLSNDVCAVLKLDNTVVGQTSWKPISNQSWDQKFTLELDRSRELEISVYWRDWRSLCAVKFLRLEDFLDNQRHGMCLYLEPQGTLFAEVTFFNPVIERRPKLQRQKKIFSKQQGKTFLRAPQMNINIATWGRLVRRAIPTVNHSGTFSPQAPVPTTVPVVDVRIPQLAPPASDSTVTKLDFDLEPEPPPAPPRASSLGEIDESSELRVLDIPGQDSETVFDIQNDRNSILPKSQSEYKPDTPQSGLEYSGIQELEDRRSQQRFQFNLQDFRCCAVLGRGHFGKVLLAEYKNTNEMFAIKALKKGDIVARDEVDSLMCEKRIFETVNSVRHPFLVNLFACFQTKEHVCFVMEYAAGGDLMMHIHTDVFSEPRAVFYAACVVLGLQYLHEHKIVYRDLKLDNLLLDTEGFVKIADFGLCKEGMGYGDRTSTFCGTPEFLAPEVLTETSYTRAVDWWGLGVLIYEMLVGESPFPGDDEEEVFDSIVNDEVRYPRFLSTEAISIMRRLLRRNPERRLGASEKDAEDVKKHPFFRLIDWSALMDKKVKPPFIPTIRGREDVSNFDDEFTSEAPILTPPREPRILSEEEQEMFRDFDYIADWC", "assay": "Inhibition of wild-type human partial length PKN2 (E634 to C984 residues) expressed in bacterial expression system assessed as residual activity at 1 uM by Kinomescan method relative to control"}, "[5]": {"target": "High affinity nerve growth factor receptor (Homo sapiens) (UniProt P04629)", "assay": "Inhibition of wild-type human partial length TRKA (G475 to G790 residues) expressed in mammalian expression system assessed as residual activity at 1 uM by Kinomescan method relative to control"}, "[6]": {"target": "Serine/threonine-protein kinase TBK1 (Homo sapiens) (UniProt Q9UHD2)", "sequence (Q9UHD2 whole entry, the tested form may be a part)": "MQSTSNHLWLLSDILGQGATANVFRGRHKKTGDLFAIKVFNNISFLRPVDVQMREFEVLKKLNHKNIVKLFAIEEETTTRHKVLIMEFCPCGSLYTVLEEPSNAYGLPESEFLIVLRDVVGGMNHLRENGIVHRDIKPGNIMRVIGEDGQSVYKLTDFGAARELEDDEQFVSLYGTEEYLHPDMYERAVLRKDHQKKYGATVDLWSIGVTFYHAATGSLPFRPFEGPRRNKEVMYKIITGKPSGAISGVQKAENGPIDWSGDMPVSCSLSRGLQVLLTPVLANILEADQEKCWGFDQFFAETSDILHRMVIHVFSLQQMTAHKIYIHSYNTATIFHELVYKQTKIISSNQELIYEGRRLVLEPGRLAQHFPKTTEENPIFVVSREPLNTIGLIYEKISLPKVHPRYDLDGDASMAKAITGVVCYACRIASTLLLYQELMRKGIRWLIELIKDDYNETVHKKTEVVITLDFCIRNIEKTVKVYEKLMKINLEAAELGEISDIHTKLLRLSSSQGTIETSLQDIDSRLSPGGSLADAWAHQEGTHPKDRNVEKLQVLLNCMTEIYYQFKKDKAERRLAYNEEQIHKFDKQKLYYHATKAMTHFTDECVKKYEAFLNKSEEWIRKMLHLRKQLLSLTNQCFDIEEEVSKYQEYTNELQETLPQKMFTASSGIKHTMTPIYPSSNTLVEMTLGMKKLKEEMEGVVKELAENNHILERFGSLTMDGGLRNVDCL", "assay": "Inhibition of wild-type human full length TBK1 (M1 to L729 residues) expressed in mammalian expression system assessed as residual activity at 1 uM by Kinomescan method relative to control"}, "[7]": {"target": "Serine/threonine-protein kinase DCLK2 (Homo sapiens) (UniProt Q8N568)", "assay": "Inhibition of wild-type human partial length DCAMKL2 (K273 to V664 residues) expressed in bacterial expression system assessed as residual activity at 1 uM by Kinomescan method relative to control"}, "[8]": {"target": "Rho-associated protein kinase 1 (Homo sapiens) (UniProt Q13464)", "assay": "Inhibition of wild-type human partial length ROCK1 (M1 to R415 residues) expressed in mammalian expression system assessed as residual activity at 1 uM by Kinomescan method relative to control"}, "[9]": {"target": "Ephrin type-A receptor 1 (Homo sapiens) (UniProt P21709)", "sequence (P21709 whole entry, the tested form may be a part)": "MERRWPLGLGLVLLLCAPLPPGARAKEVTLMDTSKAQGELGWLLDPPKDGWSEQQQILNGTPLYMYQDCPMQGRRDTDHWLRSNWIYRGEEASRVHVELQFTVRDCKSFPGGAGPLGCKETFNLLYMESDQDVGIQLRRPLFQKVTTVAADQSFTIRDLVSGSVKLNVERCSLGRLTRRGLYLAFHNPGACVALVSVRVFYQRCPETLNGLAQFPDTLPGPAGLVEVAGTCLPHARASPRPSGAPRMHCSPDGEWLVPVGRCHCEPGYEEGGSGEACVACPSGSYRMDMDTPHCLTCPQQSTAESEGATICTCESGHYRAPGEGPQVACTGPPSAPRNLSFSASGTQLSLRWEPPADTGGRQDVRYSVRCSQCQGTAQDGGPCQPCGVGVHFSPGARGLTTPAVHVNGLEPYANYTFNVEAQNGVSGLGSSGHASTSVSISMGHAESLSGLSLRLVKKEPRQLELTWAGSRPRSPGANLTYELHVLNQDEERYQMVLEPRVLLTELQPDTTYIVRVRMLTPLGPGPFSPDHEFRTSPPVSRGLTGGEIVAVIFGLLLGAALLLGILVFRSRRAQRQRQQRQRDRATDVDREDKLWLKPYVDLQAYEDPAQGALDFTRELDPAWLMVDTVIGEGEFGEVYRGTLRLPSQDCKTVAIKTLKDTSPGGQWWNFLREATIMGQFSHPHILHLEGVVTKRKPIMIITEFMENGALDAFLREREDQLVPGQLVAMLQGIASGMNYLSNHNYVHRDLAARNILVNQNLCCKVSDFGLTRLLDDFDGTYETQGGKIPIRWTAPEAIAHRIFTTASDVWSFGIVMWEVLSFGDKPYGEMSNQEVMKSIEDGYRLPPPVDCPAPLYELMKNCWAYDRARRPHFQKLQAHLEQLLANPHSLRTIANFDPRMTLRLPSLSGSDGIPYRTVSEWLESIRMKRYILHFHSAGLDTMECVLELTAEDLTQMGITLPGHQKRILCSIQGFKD", "assay": "Inhibition of wild-type human partial length EPHA1 (V588 to I913 residues) expressed in bacterial expression system assessed as residual activity at 1 uM by Kinomescan method relative to control"}, "[10]": {"target": "Cyclin-dependent kinase 7/ cyclin H (Homo sapiens) (UniProt P51946+P50613)", "assay": "Inhibition of wild-type human full length CDK7 (M1 to L344 residues)/cyclin H expressed in mammalian expression system assessed as residual activity at 1 uM by Kinomescan method relative to control"}, "[11]": {"assay": "Dose normalized AUC (0 to t) in Han-Wistar rat brain at 10 mg/kg, po measured up to 7 hrs by UPLC-MS/MS analysis", "assay_type": "ADME, organism-based", "conditions": "in vivo"}, "[12]": {"target": "Serine/threonine-protein kinase PLK2 (Homo sapiens) (UniProt Q9NYY3)", "assay": "Inhibition of wild-type human partial length PLK2 (H58 to F354 residues) expressed in mammalian expression system assessed as residual activity at 1 uM by Kinomescan method relative to control"}, "[13]": {"target": "Serine/threonine-protein kinase Nek6 (Homo sapiens) (UniProt Q9HC98)", "assay": "Inhibition of wild-type human full length NEK6 (M8 to T313 residues) expressed in bacterial expression system assessed as residual activity at 1 uM by Kinomescan method relative to control"}, "[14]": {"target": "Dual specificity tyrosine-phosphorylation-regulated kinase 2 (Homo sapiens) (UniProt Q92630)", "sequence (Q92630 whole entry, the tested form may be a part)": "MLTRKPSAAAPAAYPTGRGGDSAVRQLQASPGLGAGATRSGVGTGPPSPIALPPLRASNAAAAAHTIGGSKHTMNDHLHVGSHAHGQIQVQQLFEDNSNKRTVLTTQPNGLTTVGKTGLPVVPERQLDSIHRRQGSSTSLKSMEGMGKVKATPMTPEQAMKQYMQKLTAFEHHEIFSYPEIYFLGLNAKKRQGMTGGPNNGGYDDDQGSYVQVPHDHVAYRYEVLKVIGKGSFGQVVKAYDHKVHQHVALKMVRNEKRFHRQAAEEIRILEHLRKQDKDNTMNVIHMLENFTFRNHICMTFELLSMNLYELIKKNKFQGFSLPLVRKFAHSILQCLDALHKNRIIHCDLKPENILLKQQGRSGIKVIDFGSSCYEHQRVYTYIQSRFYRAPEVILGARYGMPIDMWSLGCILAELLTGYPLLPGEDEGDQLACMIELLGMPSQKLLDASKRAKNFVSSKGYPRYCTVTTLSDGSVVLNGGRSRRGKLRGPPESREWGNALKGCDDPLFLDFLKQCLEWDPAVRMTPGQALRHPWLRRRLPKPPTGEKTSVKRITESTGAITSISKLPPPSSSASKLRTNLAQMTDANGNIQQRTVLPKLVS", "assay": "Inhibition of wild-type human full length DYRK2 (M1 to S528 residues) expressed in mammalian expression system assessed as residual activity at 1 uM by Kinomescan method relative to control"}, "[15]": {"target": "Ephrin type-A receptor 6 (Homo sapiens) (UniProt Q9UF33)", "assay": "Inhibition of wild-type human partial length EPHA6 (Y700 to E1046 residues) expressed in bacterial expression system assessed as residual activity at 1 uM by Kinomescan method relative to control"}, "[16]": {"target": "Mitogen-activated protein kinase 9 (Homo sapiens) (UniProt P45984)", "assay": "Inhibition of wild-type human full length JNK2 (M1 to Q382 residues) expressed in mammalian expression system assessed as residual activity at 1 uM by Kinomescan method relative to control"}, "[17]": {"target": "Serine/threonine-protein kinase 38 (Homo sapiens) (UniProt Q15208)", "sequence (Q15208 2-465 limits assumed)": "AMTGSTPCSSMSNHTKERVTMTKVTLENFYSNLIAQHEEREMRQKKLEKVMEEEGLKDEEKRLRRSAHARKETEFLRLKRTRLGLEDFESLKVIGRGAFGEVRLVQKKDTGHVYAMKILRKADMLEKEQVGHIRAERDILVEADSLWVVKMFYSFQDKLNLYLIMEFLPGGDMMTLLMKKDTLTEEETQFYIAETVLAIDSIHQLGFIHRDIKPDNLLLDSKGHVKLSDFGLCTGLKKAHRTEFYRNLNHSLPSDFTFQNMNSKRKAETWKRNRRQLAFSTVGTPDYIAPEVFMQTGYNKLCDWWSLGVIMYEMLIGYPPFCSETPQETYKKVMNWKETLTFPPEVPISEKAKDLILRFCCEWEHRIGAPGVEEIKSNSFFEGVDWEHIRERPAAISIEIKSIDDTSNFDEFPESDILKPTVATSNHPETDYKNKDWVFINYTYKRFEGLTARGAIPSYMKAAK", "assay": "Inhibition of wild-type human partial length NDR1 (N33 to E449 residues) expressed in mammalian expression system assessed as residual activity at 1 uM by Kinomescan method relative to control"}, "[18]": {"target": "Leucine-rich repeat serine/threonine-protein kinase 2 (Homo sapiens, UniProt Q5S007)", "assay": "Inhibition of wild-type human partial length LRRK2 (H970 to E2527 residues) expressed in mammalian expression system assessed as residual activity at 1 uM by Kinomescan method relative to control"}, "[19]": {"target": "Serine/threonine-protein kinase Chk2 (Homo sapiens) (UniProt O96017)", "assay": "Inhibition of CHK2 (unknown origin) assessed as residual activity at 1 uM by Kinomescan method relative to control"}, "[20]": {"target": "Tyrosine-protein kinase FRK (Homo sapiens) (UniProt P42685)", "assay": "Inhibition of wild-type human partial length FRK (A215 to F503 residues) expressed in bacterial expression system assessed as residual activity at 1 uM by Kinomescan method relative to control"}, "[21]": {"assay": "Unbound fraction in rat blood", "assay_type": "ADME, tissue-based"}, "[22]": {"target": "SRSF protein kinase 3 (Homo sapiens) (UniProt Q9UPE1)", "sequence (Q9UPE1 whole entry)": "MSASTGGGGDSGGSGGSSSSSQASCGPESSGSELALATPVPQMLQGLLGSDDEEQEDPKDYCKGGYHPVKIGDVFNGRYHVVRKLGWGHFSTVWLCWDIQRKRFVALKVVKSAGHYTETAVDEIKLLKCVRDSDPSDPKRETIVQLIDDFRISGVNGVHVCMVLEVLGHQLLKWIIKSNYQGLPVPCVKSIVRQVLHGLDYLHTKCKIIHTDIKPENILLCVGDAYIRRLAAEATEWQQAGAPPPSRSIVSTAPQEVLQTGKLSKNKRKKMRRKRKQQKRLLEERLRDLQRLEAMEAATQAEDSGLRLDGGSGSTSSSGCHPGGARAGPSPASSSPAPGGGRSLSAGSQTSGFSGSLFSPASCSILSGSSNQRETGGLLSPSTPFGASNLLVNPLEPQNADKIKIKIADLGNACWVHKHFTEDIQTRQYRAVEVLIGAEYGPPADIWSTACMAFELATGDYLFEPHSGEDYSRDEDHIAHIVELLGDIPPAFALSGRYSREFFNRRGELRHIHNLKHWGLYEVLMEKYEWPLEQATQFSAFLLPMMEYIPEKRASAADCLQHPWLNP", "assay": "Inhibition of MSSK1 (unknown origin) assessed as residual activity at 1 uM by Kinomescan method relative to control"}, "[23]": {"target": "Serine/threonine-protein kinase PAK 4 (Homo sapiens) (UniProt O96013)", "assay": "Inhibition of wild-type human partial length PAK4 (Q144 to R438 residues) expressed in bacterial expression system assessed as residual activity at 1 uM by Kinomescan method relative to control"}, "[24]": {"target": "Tyrosine-protein kinase Yes (Homo sapiens) (UniProt P07947)", "assay": "Inhibition of wild-type human partial length YES (T257 to L543 residues) expressed in bacterial expression system assessed as residual activity at 1 uM by Kinomescan method relative to control"}, "[25]": {"target": "Serine/threonine-protein kinase 32B (Homo sapiens) (UniProt Q9NY57)", "assay": "Inhibition of wild-type human full length YANK2 (M1 to S414 residues) expressed in bacterial expression system assessed as residual activity at 1 uM by Kinomescan method relative to control"}, "[26]": {"target": "Protein kinase C beta type (Homo sapiens) (UniProt P05771)", "sequence (P05771 2-671 limits assumed)": "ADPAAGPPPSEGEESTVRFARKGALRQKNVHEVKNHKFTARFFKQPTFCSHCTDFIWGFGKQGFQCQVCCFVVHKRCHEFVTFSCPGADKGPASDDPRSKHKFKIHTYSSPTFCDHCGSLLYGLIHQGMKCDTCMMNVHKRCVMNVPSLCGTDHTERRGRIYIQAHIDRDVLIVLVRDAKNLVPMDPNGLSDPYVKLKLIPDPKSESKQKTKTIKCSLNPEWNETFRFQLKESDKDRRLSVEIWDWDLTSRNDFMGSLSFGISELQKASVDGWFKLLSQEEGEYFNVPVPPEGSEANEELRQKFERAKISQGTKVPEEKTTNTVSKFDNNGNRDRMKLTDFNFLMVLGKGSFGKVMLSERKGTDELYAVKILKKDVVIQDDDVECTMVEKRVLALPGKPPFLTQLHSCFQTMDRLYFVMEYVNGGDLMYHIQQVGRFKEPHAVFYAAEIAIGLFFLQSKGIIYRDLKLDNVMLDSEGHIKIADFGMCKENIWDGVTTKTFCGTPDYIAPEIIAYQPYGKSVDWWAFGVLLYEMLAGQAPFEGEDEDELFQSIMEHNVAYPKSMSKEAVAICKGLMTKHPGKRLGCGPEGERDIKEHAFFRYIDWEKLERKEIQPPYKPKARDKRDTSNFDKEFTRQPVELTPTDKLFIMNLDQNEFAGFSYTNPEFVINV", "assay": "Inhibition of PKCbeta2 (unknown origin) assessed as residual activity at 1 uM by Kinomescan method relative to control"}, "[27]": {"target": "Ribosomal protein S6 kinase alpha-6 (Homo sapiens) (UniProt Q9UK32)", "assay": "Inhibition of wild-type human partial length N-terminal RSK4 kinase domain 1 (M1 to E397 residues) expressed in mammalian expression system assessed as residual activity at 1 uM by Kinomescan method relative to control"}}}
{"smiles": "CCOc1nc(Nc2ccc(C(=O)N3CCOCC3)cc2OC)nc2[nH]ccc12", "values": [{"measurement": "Activity", "setting": "[1]", "result": 101, "unit": "%"}, {"measurement": "Activity", "setting": "[2]", "result": 84.5, "unit": "%"}, {"measurement": "Activity", "setting": "[3]", "result": 100, "unit": "%"}, {"measurement": "Activity", "setting": "[4]", "result": 101, "unit": "%"}, {"measurement": "Activity", "setting": "[5]", "result": 105, "unit": "%"}, {"measurement": "Activity", "setting": "[6]", "result": 91.7, "unit": "%"}, {"measurement": "Activity", "setting": "[7]", "result": 93.8, "unit": "%"}, {"measurement": "Activity", "setting": "[8]", "result": 94.2, "unit": "%"}, {"measurement": "Activity", "setting": "[9]", "result": 95.5, "unit": "%"}, {"measurement": "Activity", "setting": "[10]", "result": 93.8, "unit": "%"}, {"measurement": "AUCt/dose", "setting": "[11]", "result": 252, "unit": "ng·h/g/mg/kg"}, {"measurement": "Activity", "setting": "[12]", "result": 89.4, "unit": "%"}, {"measurement": "Activity", "setting": "[13]", "result": 96.8, "unit": "%"}, {"measurement": "Activity", "setting": "[14]", "result": 81.3, "unit": "%"}, {"measurement": "Activity", "setting": "[15]", "result": 100, "unit": "%"}, {"measurement": "Activity", "setting": "[16]", "result": 43.1, "unit": "%"}, {"measurement": "Activity", "setting": "[17]", "result": 97.8, "unit": "%"}, {"measurement": "Activity", "setting": "[18]", "result": 0.91, "unit": "%"}, {"measurement": "Activity", "setting": "[19]", "result": 16.8, "unit": "%"}, {"measurement": "Activity", "setting": "[20]", "result": 90.6, "unit": "%"}, {"measurement": "fraction unbound", "setting": "[21]", "result": 0.032}, {"measurement": "Activity", "setting": "[22]", "result": 78.1, "unit": "%"}, {"measurement": "Activity", "setting": "[23]", "result": 99, "unit": "%"}, {"measurement": "Activity", "setting": "[24]", "result": 94.4, "unit": "%"}, {"measurement": "Activity", "setting": "[25]", "result": 100, "unit": "%"}, {"measurement": "Activity", "setting": "[26]", "result": 89.1, "unit": "%"}, {"measurement": "Activity", "setting": "[27]", "result": 87.5, "unit": "%"}]}
